Laboratory results: US9718790B2, “Triazine derivative and pharmaceutical composition having an analgesic activity comprising the same” (SHIONOGI & CO., LTD., priority 2010, dated 2017)
Each block holds one compound with its values, some of them ahead of it.

Biological target: human P2X3 receptor (Homo sapiens (Human), UniProt P56373)
Experiment: Evaluation of human P2X3 receptor inhibitory activity (Fluo-3 calcium fluorescence, FDSS 3000, ATP stimulation);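 note: stimulus was 50 nM ATP with fluorescence followed for 3 min, and the response per well was peak post-ATP fluorescence divided by the reading at measurement start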
Format: cell-based
[1] = C6BU-1 cells stably expressing human P2X3 receptor
[2] = C6BU-1 cells stably expressing human P2X3 receptor, Fluo-3 fluorescence, FDSS 3000
[3] = human P2X3 receptor, Test Example 1

human P2X3 receptor, sequence (P56373 whole entry): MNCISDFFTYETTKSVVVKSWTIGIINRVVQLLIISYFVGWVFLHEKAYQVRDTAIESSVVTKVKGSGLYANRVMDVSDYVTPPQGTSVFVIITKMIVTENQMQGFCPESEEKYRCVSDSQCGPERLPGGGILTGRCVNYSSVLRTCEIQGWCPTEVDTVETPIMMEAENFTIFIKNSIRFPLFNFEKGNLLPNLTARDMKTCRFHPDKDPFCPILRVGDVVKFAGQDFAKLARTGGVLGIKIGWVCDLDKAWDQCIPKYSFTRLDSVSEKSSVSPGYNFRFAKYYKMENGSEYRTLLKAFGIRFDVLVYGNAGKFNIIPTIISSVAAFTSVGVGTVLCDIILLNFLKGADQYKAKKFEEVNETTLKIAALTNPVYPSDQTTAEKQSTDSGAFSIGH

SMILES: Cc1[nH]c2ccc(/N=c3\[nH]c(=O)n(CCO)c(=O)n3Cc3ccc(Cl)cc3)cc2c1C [Compound I-2042]
IC50 [1]: 23 nM

SMILES: C[C@@H](C(=O)O)[C@H](C)n1c(=O)[nH]/c(=N\c2ccc3[nH]c(S)nc3c2)n(Cc2ccc(Cl)cc2)c1=O [Compound I-1822]
IC50 [2]: 332 nM

SMILES: Cc1ccc(Cn2c(=O)n(C[C@H](C)C(=O)O)c(=O)[nH]/c2=N\c2ccc(N3CCCCC3)cc2)cc1 [Compound I-1093]
IC50 [2]: 38 nM

SMILES: CC[C@@H](C)n1c(=O)[nH]/c(=N\c2ccc(Oc3ccnc(C(=O)O)c3)cc2)n(Cc2ccc(Cl)cc2)c1=O [Compound I-2482]
IC50 [3]: 11 nM

SMILES: CCOC(=O)Cn1c(=O)[nH]/c(=N\c2ccc(Oc3cccnn3)cc2)n(Cc2ccc(Cl)cc2)c1=O [Compound I-2658]
IC50 [3]: 5 nM

SMILES: COC(=O)CN1CCC(Cn2c(=O)[nH]/c(=N\c3ccc(OC(C)C)c(C)c3)n(Cc3ccc(Cl)cc3)c2=O)CC1 [Compound I-1638]
IC50 [2]: 13 nM

SMILES: CC(=O)NCCn1c(=O)[nH]/c(=N\c2ccc(CC(C)C)c(Cl)c2)n(Cc2ccc(Cl)cc2)c1=O [Compound I-1611]
IC50 [2]: 8 nM

SMILES: CCc1oc2ccc(/N=c3\[nH]c(=O)n(CCCO)c(=O)n3Cc3ccc(Cl)cc3)cc2c1C [Compound I-1625]
IC50 [2]: 6 nM

SMILES: CNC(=O)[C@@H](CCO)n1c(=O)[nH]/c(=N\c2ccc(OC(C)C)c(C)c2)n(Cc2ccc(Cl)cc2)c1=O [Compound I-0870]
IC50 [3]: 530 nM

SMILES: CNC(=O)Cn1c(=O)[nH]/c(=N\c2ccc(Oc3ncc(C)s3)cc2)n(Cc2ccc(Cl)cc2)c1=O [Compound I-2648]
IC50 [3]: 14 nM

SMILES: Cc1nc2ccc(/N=c3\[nH]c(=O)n(CC(C)(C)C(=O)O)c(=O)n3Cc3ccc(Cl)cc3)cc2s1 [Compound I-1576]
IC50 [2]: 8 nM

SMILES: COC(=O)[C@H](C)[C@H](C)n1c(=O)[nH]/c(=N\c2ccc(Oc3ccc(C)nc3)cc2)n(Cc2ccc(Cl)cc2)c1=O [Compound I-1375]
IC50 [1]: 5 nM

SMILES: CCn1c(=O)[nH]/c(=N\c2ccc(Oc3cnc(C#N)cn3)cc2)n(Cc2ccc(Cl)cc2)c1=O [Compound I-2427]
IC50 [3]: 2 nM

SMILES: Cc1ccc(Cn2c(=O)n(C[C@H](C)C(=O)O)c(=O)[nH]/c2=N\c2cccc(C3=CCCCC3)c2)cc1 [Compound I-1112]
IC50 [2]: 872 nM

SMILES: C#Cc1ccc(Cn2c(=O)n(C[C@H](C)C(=O)O)c(=O)[nH]/c2=N\c2ccc(OC(C)C)c(C)c2)cc1 [Compound I-0946]
IC50 [2]: 239 nM

SMILES: CCn1c(=O)[nH]/c(=N\c2ccc(Oc3ccnc(C(N)=O)c3)cc2)n(Cc2ccc(Cl)cn2)c1=O [Compound I-2237]
IC50 [3]: 20 nM

IC50 [3]: 202 nM
SMILES: CO/N=C/c1ccc(/N=c2\[nH]c(=O)n(C[C@H](C)C(=O)O)c(=O)n2Cc2ccc(Cl)cc2)cc1F [Compound I-0893, (S)-1-(4-chlorobenzyl)-6-(3-fluoro-4-methoxyiminomethylphenylimino)-3-(2-hydroxycarbonylpropyl)methyl-1,3,5-triazinane-2,4-dion]

SMILES: Cc1cc(/N=c2\[nH]c(=O)n(C3CCN(CC(=O)O)CC3)c(=O)n2Cc2ccc(Cl)cc2)ccc1OC(C)C [Compound I-1649]
IC50 [2]: 285 nM

SMILES: CCOC(=O)CCn1c(=O)[nH]/c(=N\c2ccc3[nH]c(C)c(C)c3c2)n(Cc2ccc(Cl)cc2)c1=O [Compound I-1931]
IC50 [1]: 9 nM

SMILES: CCn1c(=O)[nH]/c(=N\c2ccc(Oc3ccc(C(=O)NC)nn3)cc2)n(Cc2ccc(Cl)cc2)c1=O [Compound I-2533]
IC50 [3]: 4 nM

SMILES: CC1(C)OCC(Cn2c(=O)nc(Cc3cccc(C(F)(F)F)c3)n(Cc3ccc(Cl)cc3)c2=O)CO1 [Compound I-1642]
IC50 [2]: 551 nM

SMILES: O=C(O)CCn1c(=O)[nH]/c(=N\c2ccc(Oc3cccc(F)c3)cc2)n(Cc2ccc(Cl)cc2)c1=O [Compound I-1951]
IC50 [1]: 25 nM

SMILES: CNC(=O)Cn1c(=O)[nH]/c(=N\c2ccc(Oc3ncccn3)cc2)n(Cc2ccc(Cl)cc2)c1=O [Compound I-2687]
IC50 [3]: 35 nM

SMILES: Cc1ccc(Cn2c(=O)n(C[C@H](C)C(=O)O)c(=O)[nH]/c2=N\c2ccc(OC(C)C)c(C#N)c2)cc1 [Compound I-0961]
IC50 [2]: 74 nM

SMILES: Cc1cc(/N=c2\[nH]c(=O)n(CC3CCN(CC(=O)O)CC3)c(=O)n2Cc2ccc(Cl)cc2)ccc1OC(C)C [Compound I-1648]
IC50 [2]: 160 nM

SMILES: O=c1[nH]/c(=N\c2ccc(Oc3nccs3)cc2)n(Cc2ccc(Cl)cc2)c(=O)n1C[C@@H](O)CO [Compound I-2506]
IC50 [3]: 14 nM

SMILES: CCn1c(=O)[nH]/c(=N\c2ccc(Oc3ccnc(C(=O)NC)c3)c(F)c2)n(Cc2ccc(Cl)cc2)c1=O [Compound I-2432]
IC50 [3]: 2 nM

SMILES: Cc1cc(/N=c2\[nH]c(=O)n([C@H]3C[C@@H](C(=O)O)N(C(=O)OC(C)(C)C)C3)c(=O)n2Cc2ccc(Cl)cc2)ccc1OC(C)C [Compound I-0708]
IC50 [1]: 966 nM

SMILES: Cc1cc(Oc2ccc(/N=c3\[nH]c(=O)n(C[C@H](O)CO)c(=O)n3Cc3ccc(Cl)cc3)cc2)n(C)n1 [Compound I-2371]
IC50 [3]: 102 nM

SMILES: CC(C)Oc1ccc(/N=c2\[nH]c(=O)n(C[C@H]3COC(C)(C)O3)c(=O)n2Cc2ccc(Cl)cc2)cc1Cl [Compound I-0633]
IC50 [1]: 4 nM

SMILES: CCn1c(=O)[nH]/c(=N\c2ccc(Oc3nc(C(=O)O)cs3)cc2)n(Cc2ccc(Cl)cc2)c1=O [Compound I-2193]
IC50 [1]: 6 nM

SMILES: O=c1[nH]/c(=N\c2ccc(Oc3ccnc(O)c3)cc2)n(Cc2ccc(Cl)cc2)c(=O)n1CCCO [Compound I-1713]
IC50 [2]: 3 nM

SMILES: Cc1cc(/N=c2\[nH]c(=O)n(CC3CNC3)c(=O)n2Cc2ccc(Cl)cc2)ccc1OC(C)C [Compound I-1654]
IC50 [2]: 66 nM

SMILES: CC(C)n1c(=O)nc(Nc2ccc3oc(=O)[nH]c3c2)n(Cc2ccc(Cl)cc2)c1=O [Compound I-0249]
IC50 [2]: 953 nM

SMILES: Cc1ccc(Cn2c(=O)n(CC3(C(=O)O)CC3)c(=O)[nH]/c2=N\c2ccc(OCC3CC3)cc2)cc1 [Compound I-0915]
IC50 [2]: 75 nM

SMILES: COC(=O)[C@@H](C)Cn1c(=O)[nH]/c(=N\c2ccc(NS(C)(=O)=O)cc2)n(Cc2ccc(C)cc2)c1=O [Compound I-1416]
IC50 [1]: 141 nM

SMILES: CC[C@@H](CC(=O)OC)n1c(=O)[nH]/c(=N\c2ccc(OC(C)C)c(C)c2)n(Cc2ccc(Cl)cc2)c1=O [Compound I-0782]
IC50 [1]: 192 nM

SMILES: CC[C@@H](C)Oc1ccc(/N=c2\[nH]c(=O)n(CCC(=O)O)c(=O)n2Cc2ccc(C)cc2)cc1C [Compound I-1029]
IC50 [2]: 35 nM

SMILES: NC(=O)Cn1c(=O)[nH]/c(=N\c2ccc(Oc3nccs3)cc2)n(Cc2ccc(Cl)cc2)c1=O [Compound I-2644]
IC50 [3]: 17 nM

SMILES: C[C@@H](C(=O)O)[C@H](C)n1c(=O)[nH]/c(=N\c2ccc3c(c2)OC(F)(F)O3)n(Cc2ccc(Cl)cc2)c1=O [Compound I-1821]
IC50 [2]: 429 nM

SMILES: CCCCOc1ccc(/N=c2\[nH]c(=O)n(C[C@H](C)C(=O)O)c(=O)n2Cc2ccc(Cl)cc2)cc1 [Compound I-0819]
IC50 [1]: 22 nM

SMILES: COC(=O)[C@@H](C)Cn1c(=O)[nH]/c(=N\c2ccc(Br)cc2)n(Cc2ccc(C)cc2)c1=O [Compound I-1076]
IC50 [2]: 177 nM

SMILES: CCOC(=O)C1(Cn2c(=O)[nH]/c(=N\c3ccc4nc(CC)sc4c3)n(Cc3ccc(C)cc3)c2=O)CC1 [Compound I-1547]
IC50 [3]: 3 nM

SMILES: CCOC(=O)Cn1c(=O)[nH]/c(=N\c2ccc(Oc3ncccn3)cc2)n(Cc2ccc(Cl)cc2)c1=O [Compound I-2657]
IC50 [3]: 7 nM

SMILES: COC(=O)C(C)(C)Cn1c(=O)[nH]/c(=N\c2ccc(OC(C)C)c(CO)c2)n(Cc2ccc(Cl)cc2)c1=O [Compound I-1423]
IC50 [1]: 41 nM

SMILES: Cc1cc(/N=c2\[nH]c(=O)n(C[C@H](C)C(=O)O)c(=O)n2Cc2ccc(Cl)cc2)ccc1C#CC1CC1 [Compound I-1042]
IC50 [2]: 148 nM
